Data on eight substances can be found in patent US20240325533A1, “MODIFIED IMMUNE CELLS AND METHODS OF USING THE SAME” (Beam Therapeutics Inc., priority 2021, published 2024).

In one data set the test system is SKOV3 or H226 cells. The data set can be described thus: IFNγ production of EGFR CAR-Ts with HIF1α edits co-cultured with tumor cells in 1% O2. The format is cell-based. Particulars: 1 to 1 E:T ratio, 1% O2, 48 hours, vs unedited EGFR CAR-T cells, FIG. 10. As for the experimental part: FIG. 10 provides bar graphs depicting IFNγ production (pg/mL) after EGFR CAR-Ts with HIF1α edits were co-cultured at 1 to 1 E:T ratio with either SKOV3 or H226 cells in 1% O2 for 48 hours. HIF1α was edited using guides g170 and g173. Electroporation (EP) only was used as a control. EGFR CAR-T cells with HIF1α knockout edits produced more cytokine under hypoxic stress than unedited EGFR CAR-T cells.

The subject of another data set is EGFR-specific CAR. The data set can be described thus: CAR expression by flow cytometry after editing (anti-idiotype antibody staining). The class given is cell-based, human. The text has this:
FIGS. 4A-4C provide flow cytometry graphs and bar graphs. FIGS. 4A and 4B depict CAR expression after editing A2A, HIF1α, and A2B target sites in CAR-T cells using guides. FIG. 4A provides flow cytometry graphs depicting CAR expression controls for electroporation (EP) only and untransduced (UTD) CAR-T cells. FIG. 4B are flow cytometry graphs depicting CAR expression of edited A2AR target sites using guides g145, g155, and Cas9 (top), edited HIF1α target sites using guides g168, g170, and g173 (middle), and edited A2B target sites using guides g221, g222, and Cas9 (bottom). FIG. 4C is a bar graph quantifying the CAR expression observed in the flow cytometry graphs of FIG. 4B. Consistent 60% CAR expression was seen across all guides and editing targets. There was no observed impact of editing on CAR expression.
FIG. 19A provides a bar graph showing base editing of the ADORA2A gene quantified via next generation sequencing (NGS). […] FIG. 19D provides a schematic providing an overview of a process for generating multiplex base edited EGFR-targeting ARC T cells. In FIG. 19B, each set of three bars correspond to, from left-to-right, TCR, HLA Class I, and HLA Class II. In FIGS. 19A-19D, “Base Editing Guide 1” […] indicates cells edited using the base editor ABE8.20 in combination with the guide sgRNA145 (see Table 1A), “Base Editing Guide 2” (BE2) indicates cells edited using the base editor ABE8.20 in combination with the guide sgRNA155, and “CRISPR Guide” indicates cells edited using a CRISPR guide and editor known to be effective in knocking out expression of A2AR.
FIG. 25 provides a set of flow cytometry scatter plots showing chimeric antigen receptor expression in EGFR-targeting CAR-T cells edited to knock out expression of the indicated polypeptides (i.e., A2AR, PD1, TGFbRII, or combinations thereof). At the end of culturing, T cells were stained with an anti-idiotype antibody. […] was knocked out using the guide TSBTx2043, PD1 expression was knocked out using the guide TSBTx025, TGFbR expression was knocked out using the guide TSBTx5277, and “Triple KO” cells were editing using all three guides (see Table 1B).

For the next data set, the system named is IFNγ production. The data set can be described thus: IFNγ production of A2AR knockout T cells in the presence of CADO / extracellular adenosine. The format is cell-based. The following applies: normalized to 0 μM CADO (DMSO only), FIG. 15. Here is the method:
FIG. 15 presents bar graphs depicting IFNγ production after 48 hours in A2AR knockout T cells using guides g145 and g155. The data shown in FIG. 15 is normalized to IFNγ production in 0 μM CADO (DMSO only treatment). A2A knockout protected CAR-T cells from adenosine-mediated cytokine suppression.
FIGS. 20A-20E provide flow cytometry histograms, bar graphs, a plot, and images showing adenosine-resistant CAR-T cells (CAR-T cells) were protected from adenosine-mediated suppression in vitro. […] H266 cells expressing GFP were plated in ultra-low adherent 96-well plates and incubated at 36° C. for 3 days to allow for spheroid formation. Then, untransduced cells (UTD), ARC T cells, or CAR T cells expressing TCR, HLA Class I, HLA Class II, and ADAR were added to the wells at a 1:2 effector to target ratio (E:T) with 0 μM adenosine. Plates were then placed in an Incucyte live imaging analysis instrument and cytotoxicity was measured via reduction in GFP+ spheroid volume over time. In FIGS. 19A-19D, “BE KO1” indicates cells edited using the base editor ABE8.20 in combination with the guide sgRNA145 (see Table 1A), “BE KO2” indicates cells edited using the base editor ABE8.20 in combination with the guide sgRNA155, and “CRISPR KO” indicates cells edited using a CRISPR guide and editor known to be effective in knocking out expression of A2AR.

The next data set has as its system pCREB. Briefly: pCREB expression (flow cytometry) in A2AR knockout T cells treated with CADO. The format is cell-based. The following applies: 30 μM CADO vs DMSO, FIG. 14. Here is the method:
FIG. 14 provides histograms depicting expression of pCREB in A2AR knockout T cells using guides g145 and g155. Cas9 and Electroporation (EP) only were used as controls. In the plots, the darker-grey histogram corresponds to DMSO and the lighter-grey histogram corresponds to 30 μM CADO. […] Throughout the figures, the term “CADO” represents 2-chloroadenosine.
FIGS. 20A-20E provide flow cytometry histograms, bar graphs, a plot, and images showing adenosine-resistant CAR-T cells (CAR-T cells) were protected from adenosine-mediated suppression in vitro. […] H266 cells expressing GFP were plated in ultra-low adherent 96-well plates and incubated at 36° C. for 3 days to allow for spheroid formation. Then, untransduced cells (UTD), ARC T cells, or CAR T cells expressing TCR, HLA Class I, HLA Class II, and ADAR were added to the wells at a 1:2 effector to target ratio (E:T) with 0 μM adenosine. Plates were then placed in an Incucyte live imaging analysis instrument and cytotoxicity was measured via reduction in GFP+ spheroid volume over time. […]

The mark [1] stands for this setting: after editing A2A, HIF1α, and A2B target sites in CAR-T cells, FIG. 4C.

For the substance “ACACAGGUAUUGCACUGCAC (chemistry not given here) [sgRNA170, guide RNA spacer; HIF1α; ABE; Ex6 SA (Pos 5)]”, the IFNγ production result in the data set with SKOV3 or H226 cells was “more cytokine”. The CAR expression in the data set on EGFR-specific CAR (setting [1]) was found to be 60%.
Regarding “CUGCUCACCGGAGCGGGAUG (chemistry not given here) [sgRNA145, guide RNA spacer; A2AR; CBE; Ex1 SD (Pos 8)]”, in the data set on IFNγ production, the “IFNγ production after 48 hours (adenosine-mediated cytokine suppression)” value is “protected”. In the data set with EGFR-specific CAR (setting [1]), the CAR expression is 60%. For the same substance, the “upregulation of downstream pCREB” value in the data set on pCREB is on record as “no upregulation”.
Take “GGCCAUGCUGCUGGAGACAC (chemistry not given here) [sgRNA221, guide RNA spacer; A2BR; ABE; Ex1 START (Pos 5)]”: the CAR expression in the data set on EGFR-specific CAR (setting [1]) was determined as 60%.
With “TSBTx5277: guide used with Cas12b to knock out TGFbR2 (guide CCCAGAGCACCAGAGCCAUGGA; listed as RNA, chemistry not given here)”, the CAR expression result in the data set on EGFR-specific CAR (EGFR-targeting CAR-T cells with A2AR, PD1, TGFbRII knock-out or combinations, anti-idiotype antibody, FIG. 25) is reported as “No differences”.
Take “UCACCUGAGCGGGACACAGA (chemistry not given here) [sgRNA222, guide RNA spacer; A2BR; Ex1 SD (Pos 4); used with CBE]”: the CAR expression with EGFR-specific CAR (setting [1]) is given as 60%.
Turning to “UCUCCCCAGGUACAAUGGCU (chemistry not given here) [sgRNA155, guide RNA spacer; A2AR; ABE (ABE8.20); Ex2 SA (Pos 8)]”, the “IFNγ production after 48 hours (adenosine-mediated cytokine suppression)” value in the data set with IFNγ production is “protected”. The CAR expression in the data set with EGFR-specific CAR (setting [1]) is 60%. In the data set with pCREB, the “upregulation of downstream pCREB” value is recorded as “no upregulation”.
With “UGUUUACAGUUUGAACUAAC (chemistry not given here) [sgRNA168, guide RNA spacer; HIF1α; ABE; Ex4 SA (Pos 8)]”, the CAR expression with EGFR-specific CAR (setting [1]) is reported as 60%.
“UUUCAGAACUACAGUUCCUG (chemistry not given here) [sgRNA173, guide RNA spacer; HIF1α; ABE (ABE8.20); Ex13 SA (Pos 5)]”: the IFNγ production entry in the data set on SKOV3 or H226 cells is listed as “more cytokine”. The CAR expression in the data set with EGFR-specific CAR (setting [1]) worked out at 60%.
